Test [1] addresses T1, Dopamine D2 Receptor (hD2L) (Homo sapiens, UniProt P14416).
T1 construct: expressed in transfected cells; host or cells: CHO cells (CHO-hD2L)
The test can be described thus: Dopamine D2 Receptor Binding Assay ([3H]spiperone, CHO-hD2L membranes). The conditions noted are these: [3H]spiperone 0.4 nM, HCl salt tested. On the procedure:
1) Dopamine D2 Receptor Binding Assay
[^3H]Spiperone binding to a membrane preparation from CHO-hD2L cells was carried out in 250 μL of 50 mM Tris-HCl buffer containing 100 mM NaCl, 1 mM MgCl2 and 1% DMSO at pH 7.4. Duplicate samples containing (in order of addition) the test compound, 0.4 nM [^3H]spiperone and approximately 12 μg protein were incubated for 120 min at room temperature. Bound radioligand was separated by rapid filtration under reduced pressure through Whatman GF/B glass fiber filters previously treated with 0.3% polyethyleneimine (PEI). Radioactivity retained on the filter was determined by liquid scintillation spectrophotometry. Specific binding determined in the presence of 1 mM haloperidol was 95%.

Test [2] has as its target T2, Serotonin 1A (5-HT1A) Receptor (Homo sapiens, UniProt P08908).
T2 construct: expressed in transfected cells; host or cells: HeLa cells
T2 sequence (P08908 1-422): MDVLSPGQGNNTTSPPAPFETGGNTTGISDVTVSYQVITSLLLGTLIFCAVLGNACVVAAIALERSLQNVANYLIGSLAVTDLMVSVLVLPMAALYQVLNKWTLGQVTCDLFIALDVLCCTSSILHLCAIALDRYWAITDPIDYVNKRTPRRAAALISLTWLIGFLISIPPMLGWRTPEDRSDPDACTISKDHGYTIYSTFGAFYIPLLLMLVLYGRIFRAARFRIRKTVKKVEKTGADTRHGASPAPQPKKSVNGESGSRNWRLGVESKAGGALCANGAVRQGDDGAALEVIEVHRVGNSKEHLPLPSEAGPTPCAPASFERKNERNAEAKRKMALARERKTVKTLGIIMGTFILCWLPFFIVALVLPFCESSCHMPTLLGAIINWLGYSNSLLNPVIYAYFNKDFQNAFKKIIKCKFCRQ
The test can be described thus: Serotonin 1A (5-HT1A) Receptor Binding Assay ([3H]8-OH-DPAT, transfected HeLa membranes). The conditions noted are these: [3H]8-OH-DPAT 2.0 nM, transfected HeLa cell membranes; HCl salt tested. On the procedure: 2) Serotonin 1A (5-HT1A) Receptor Binding Assay
The assay was conducted in membranes prepared from HeLa cells transfected with the cDNA for […] receptors using [^3H] 8-hydroxy-2-(di-n-propylamino)-tetraline ([^3H] 8-OH-DPAT, final concentration 2.0 nM) as reference […] receptor agonist. Assay buffer consisted of 50 mM Tris-HCl with 10 mM MgSO4, 0.5 mM EDTA and 0.1% ascorbic acid, at pH 7.4 (250 μL total volume). Triplicate samples containing (in order of addition) the test compound, 100× in 100% DMSO, [^3H] 8-OH-DPAT and cell homogenate was incubated for 2 hr at room temperature. Experiments were terminated by rapid filtration through Whatman GF/B glass fiber filters soaked in assay buffer with 0.3% PEI by washing three timnes with 1 mL of wash buffer (50 mM Tris-HCl, pH 7.4) using a Brandel MLR-96T cell harvester. Specific binding (85%) was determined in the presence of 10 μM 8-OH-DPAT.

For test [3], the target named is T3, D2 receptor (CHO pro-5 cells) (Homo sapiens, UniProt P14416).
T3 construct: expressed in transfected cells; host or cells: CHO pro-5 cells
T3 sequence (P14416 whole entry): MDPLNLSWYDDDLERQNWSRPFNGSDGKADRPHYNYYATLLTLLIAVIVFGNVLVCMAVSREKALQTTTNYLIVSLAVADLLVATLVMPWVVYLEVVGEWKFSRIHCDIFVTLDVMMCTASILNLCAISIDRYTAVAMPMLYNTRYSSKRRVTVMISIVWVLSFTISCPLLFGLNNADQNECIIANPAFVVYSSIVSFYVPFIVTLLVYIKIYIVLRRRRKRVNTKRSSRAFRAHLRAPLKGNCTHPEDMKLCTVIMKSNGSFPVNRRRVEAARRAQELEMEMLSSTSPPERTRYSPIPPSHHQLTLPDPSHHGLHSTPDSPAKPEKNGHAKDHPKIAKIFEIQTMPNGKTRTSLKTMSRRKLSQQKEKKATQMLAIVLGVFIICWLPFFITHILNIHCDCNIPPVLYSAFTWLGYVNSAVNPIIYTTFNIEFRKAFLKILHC
The test can be described thus: [3H]Thymidine Uptake Assay for Dopamine D2 Intrinsic Activity. The conditions noted are these: relative to 1 μM Quinpirole classified as 100% intrinsic activity; HCl salt tested. The format is cell-based. On the procedure:
3) [^3H]Thymidine Uptake Assay for Dopamine D2 Intrinsic Activity
The assay was conducted using CHO pro-5 cells containing the D2 receptor and conventional 96-well sterile plates. Serum was removed from the cells by washing the cells twice with 200 μL of serum-free media. 90 μL serum-free media was added to each well. The plates ware incubated for two to three hours. 10 μL of serum-containing media, as a positive control, vehicle (serum-free media), antagonist control (haloperidol), or the test compound, and standards (10 μL of a 10 μM solution for a final concentration of 1 μM) in serum-free media were added to wells. The plates were returned to the incubator. Eighteen hours later [^3H]thymidine was added (0.5 μCi/well in 10 μL of serum-free media) and the plates were returned to the incubator. Four hours later trypsin (0.25%) was added (100 μL/well). The plates were returned to the incubator, once again. One hour later the assay was terminated by rapid filtration through Whatman GF/C glass fiber filters. Filters were washed four times with […] of 50 mM Tris-HCl pH 7.0 buffer, for example, using a Brandel MLR-96T cell harvester. Radioactivity remaining on the filters was estimated with a Wallac 1205 Betaplate liquid scintillation counter (50% efficiency). Intrinsic activity is defined as total uptake (1 μM Quinpirole) minus serum-free media (no uptake). […]

In another test the target is T4, h5-HT1A (CHO p-5 cells) (Homo sapiens, UniProt P08908).
T4 construct: expressed in transfected cells
T4 sequence (P08908 1-422): T2 sequence (P08908 1-422)
The test can be described thus: [3H]Thymidine Uptake Assay for Serotonin 1A Intrinsic Activity. The format is cell-based. The settings on record: relative to 1 μM (+)-8-OH-DPAT classified as 100% response; HCl salt tested. On the procedure: 4) [^3H]Thymidine Uptake Assay for Serotonin 1A Intrinsic Activity
CHO p-5 cells transfected with h5-HT1A cDNA were seeded into 96-well plates at a density of approximately […] cells/well. These were grown for 3 days at 37° C. in an incubator with alpha minimum essential medium (αMEM) and 10% fetal calf serum containing penicillin (100 U/mL) and streptomycin (100 μg/mL). The wells were then rinsed by washing twice with 200 μL of serum-free media, and 90 μL serum-free media was added to each well. The plates were incubated for two to three hours, then 10 μL of serum-containing media (positive control), vehicle (10 μL DMSO), negative control (10 μL of an antagonist in DMSO) or different concentrations of the test compound and standards (10 μL DMSO solution) in serum-free media were added to appropriate wells. The plates were incubated for 18 hrs. Then [^3H]thymidine was added (0.5 μCi/well in 10 μL of serum-free media) after which the plates were returned to the incubator. Four hours later, trypsin (0.25%) was added (100 μL/well), and plates were returned again to the incubator. The assay was terminated 1 hr later by rapid filtration through Whatman GF/C glass fiber filters. […] Radioactivity remaining on the filters was estimated with a Wallac 1205 Betaplate liquid scintillation counter (50% efficiency). […]

T1 sequence (P14416 whole entry): as above

With `O=c1ccc2ccc(OCCCCN3CCN(c4cccc(Cl)c4C(F)(F)F)CC3)nc2[nH]1` [compound of formula (I), 7-(4-{4-[3-chloro-2-(trifluoromethyl)phenyl]piperazine-1-yl}butoxy)-[1,8]-naphthyridin-2(1H)-one], the Ki came to 3.9 nM in test [1] and 4 nM in test [2]. Further, the results for the Emax (in test [3]; on h5-HT1A (CHO p-5 cells)) were 55% and 90%, respectively.

By Ki is commonly meant the equilibrium dissociation constant of an inhibitor or competing ligand from its target. One may read the Emax as the maximal effect, on the per cent scale that the assay sets.

(Values after patent US20080167319A1, “7-(4-(4-[3-CHLORO-2-(TRIFLUOROMETHYL)PHENYL]PIPERAZIN-1-YL)BUTOXY)-[1,8]-NAPHTHYRIDIN-2(1H)-ONE” (Pfizer Inc., priority 2007, published 2008).)
